Measurements: patent US20140199346A1 (priority 2009, published 2014)
Entries after “also recorded” stand apart in the source; their conditions may differ.

What was measured:
[1] = test system: H1N1 subtype of influenza virus A/PR/8; experiment: Test Example 1: oral administration to mice infected with influenza virus (1,000 pfu/mouse), body weights and survival rates; format: in vivo
Description: Test solutions were prepared for the test groups and control group shown in Table 1 below, respectively, and effects of oral administration of the solutions on mice infected with an influenza virus were examined. It should be noted that “Tamiflu dry syrup 3%” (product name, Chugai Pharmaceutical Co., Ltd.) was used as an anti-influenza drug oseltamivir.
As experimental animals, mice (C57BL/6NJc1, male, 6 weeks old) were used, and as the influenza virus, H1N1 subtype of influenza virus A/PR/8 was used. Infection of the mice with the influenza virus was carried out as follows. That is, the mice were placed in a container filled with isoflurane, and taken out after confirming that their breathing became slow. […] After confirming that the mice recovered from anesthesia, the mice were returned to breeding cages.
It should be noted that the culture solution of Aureobasidium (Test group 1) was orally administered every day during the test period by a sonde method once a day in an amount of 200 μL. […] The body weights of the mice after infection with the virus were measured every day, and transition of the body weights and survival rates were determined.

[2] = test system: H1N1 subtype of influenza virus A/PR/8; experiment: Test Example 2: oral administration to mice infected with influenza virus (2,000 pfu/mouse), body weights and survival rates; format: in vivo
Description: It should be noted that the phrase “dead bacterial cells of EF lactic acid bacterium” in the table means a commercially available heat-sterilized bacterial cell powder of Enterococcus faecalis.
Infection of mice used as experimental animals with the influenza virus was carried out so that the virus titer was twice as large as that in Test Example 1. That is, the infection was carried out in the same manner as in Test Example 1 except that a diluted virus solution having a virus titer of 4×10^4 pfu/mL was injected from both nasal cavities alternately using a micropipette in an amount of 50 μL (2,000 pfu/mouse).
That is, in the case of each of Test groups 3 to 5 and Control group 2, the test solution was orally administered every day during the test period by the sonde method once a day in an amount of 200 μL. […]
The body weights of the mice after infection with the virus were measured every day, and transition of the body weights and survival rates were determined.

[3] = test system: H1N1 subtype of influenza virus A/PR/8; experiment: Test Example 4: virus titer in lung of mouse (plaque count on MDCK cells); format: in vivo, mice
Description: In order to study mechanisms of the effects shown in Test Examples 1 to 3, influences on a virus titer in the lung of a mouse infected with the influenza virus were examined. Specifically, test solutions were prepared for the test groups and control group shown in Table 7 below, respectively, and orally administered, and the virus titer in the lung of each mouse infected with the influenza virus was examined. It should be noted that the phrase “dead bacterial cells of EF lactic acid bacterium” in the table means a commercially available heat-sterilized bacterial cell powder of Enterococcus faecalis.
That is, the mice were infected with the influenza virus in the same manner as in Test Example 2 except that the period after the beginning of administration of the test solutions was changed to one week. […] In the case of Test group 14, the test was carried out in the same manner as in Test group 13 except that the dead bacterial cells of the lactic acid bacterium (6.7×10^9 cells) were used in combination as a suspension in 200 μL of the culture solution of Aureobasidium. In addition, in the case of Test group 15, to which only oseltamivir was administered, in order to carry out comparison with the maximum effect of administration of only oseltamivir, oseltamivir was orally administered continuously every day (morning and evening, in an amount of 200 μL per dose) after virus infection.
The virus titer in the lung of a mouse was measured as follows.
On day 1, day 3, and day 5 of virus infection, three mice of each group were dissected, and the lung washed with PBS to remove blood was collected. The collected lung was crushed, and the tissue was separated as a cell suspension and then centrifuged at 5,000 rpm for 10 minutes. The supernatant was collected and used as a sample. The collected sample was diluted serially in 10-fold steps with 1×MEM to concentrations ranging from 10^−1 to 10^−6. On the other hand, MDCK cells were cultured from the previous day, and a state in which the MDCK cells (one sample: one 12-well plate) were proliferated to confluency was confirmed. Then, the medium of the MDCK cells was removed, and the cells were washed with 1 ml of PBS. PBS used for washing was removed, and each of the samples diluted serially was added in an amount of 100 μL, and then the plate was allowed to stand still in a 5% CO2 incubator (37° C.) for one hour. During incubation, the plate was shaken every 15 minutes to prevent the cells from drying. Subsequently, 2×MEM was mixed with an equal amount of a 1.6% agar solution, and trypsin was added so as to reach a final concentration of 0.0005% to prepare a MEM-agar solution. The solution was warmed in a water bath at 42° C. One hour later, the virus solution was removed, and the cells were washed with 1 ml of PBS. The prepared MEM-agar solution was added to each well in an amount of 1 ml, and the plate was allowed to stand for a while until the agar was solidified. After that, the cells were cultured in a 5% CO2 incubator (35° C.), and 48 hours later, the number of plaques was counted.

NK cells = test system: NK cells; parameters: species or system mice; details: mouse, in vivo
T cells = test system: T cells; parameters: species or system mice; details: mouse, in vivo

CCOC(=O)C1=C[C@@H](OC(CC)CC)[C@H](NC(C)=O)[C@@H](N)C1 [Test group 2, oseltamivir]
survival rate ([1]; 1,000 pfu/mouse, oral, until day 14 of infection, 3 mice): 100%
body weight increase at the end of the test (day 14 of infection) as compared to the first day of infection ([1]; individual mouse, 1,000 pfu/mouse): 5%
body weight at completion of the test ([1]; individual mouse, after recovery, day 14 of infection): same body weight as that on the first day of infection
body weight decrease at completion of the test as compared to the first day of infection ([1]; individual mouse, day 14 of infection): 3%
body weight decreased by up to ([1]; individual mouse, maximum loss after infection, 1,000 pfu/mouse): about 20%; also recorded: about 25%
body weights decreased by up to ([2]; mice whose body weight decreased): about 34%
mice died during the test period ([2]; oral, until day 17 of infection): 50%
Comparison of virus titers (virus titer for administration of PBS on each day after infection is defined as 1) ([3]; 1 day after infection): 1/5
Comparison of virus titers (virus titer for administration of PBS on each day after infection is defined as 1) ([3]; 3 days after infection): 1/53
Comparison of virus titers (virus titer for administration of PBS on each day after infection is defined as 1) ([3]; 5 days after infection): 1/89
mouse lung virus titer ([3]; day 1 of infection): 5.88 log10 PFU
increase of lung virus titer as compared to day 1 of infection ([3]; day 3 of infection): 15.4 fold
mouse lung virus titer ([3]; day 3 of infection): 6.83 log10 PFU
increase of lung virus titer as compared to day 1 of infection ([3]; day 5 of infection): 122 fold
mouse lung virus titer ([3]; day 5 of infection): 7.76 log10 PFU
ratio of NK cells in viable cells in the lung (NK cells): about 1.8%
ratio of NK cells in viable cells relative to Control group (NK cells): about one-quarter
ratio of activated NK cells in the NK cells (NK cells): 46.2%
number of activated T cells relative to Control group 5 (T cells): about one-third
ratio of activated T cells in the T cells (T cells): 7.3%
